Reference: patent US20160002248A1, “GLS1 INHIBITORS FOR TREATING DISEASE” (Board of Regents, The University of Texas System, priority 2014, published 2016)

What was measured:
A549 cells = assay: Proliferation Assay (A549 cell viability, Cell Titer Fluor); format: cell-based; details: 72 hours
In short: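 Compound was added to A549 cells (1000/well, pre-grown 24 h in RPMI 1640 plus 10% dialyzed FBS) at 0.5% DMSO and left 72 h under 37 °C, 5% CO2, ambient O2. Live-cell fluorescence (Cell Titer Fluor) gave the EC50.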

[1] = molecular target: T1, purified recombinant human GAC (GLS1) (Homo sapiens, UniProt O94925); assay: GLS1 Enzymatic Activity Assay (dual-coupled enzymatic assay); format: biochemical
T1 sequence (O94925 55-598 isoform O94925-3 limits assumed): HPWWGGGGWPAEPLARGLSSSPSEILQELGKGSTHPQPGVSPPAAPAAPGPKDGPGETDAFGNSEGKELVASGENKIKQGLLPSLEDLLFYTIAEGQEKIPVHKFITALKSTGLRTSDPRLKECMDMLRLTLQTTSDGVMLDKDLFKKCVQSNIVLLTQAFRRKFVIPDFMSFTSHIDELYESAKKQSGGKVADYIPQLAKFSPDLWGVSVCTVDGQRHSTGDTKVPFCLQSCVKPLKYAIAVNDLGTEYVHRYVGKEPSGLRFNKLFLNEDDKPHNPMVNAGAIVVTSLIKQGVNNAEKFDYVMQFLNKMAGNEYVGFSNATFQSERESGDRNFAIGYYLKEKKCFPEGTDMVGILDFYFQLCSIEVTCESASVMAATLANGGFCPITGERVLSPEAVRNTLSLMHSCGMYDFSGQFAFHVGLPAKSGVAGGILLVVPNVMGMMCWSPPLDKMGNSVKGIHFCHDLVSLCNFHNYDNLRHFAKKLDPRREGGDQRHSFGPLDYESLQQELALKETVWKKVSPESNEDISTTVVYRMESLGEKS
In short: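 In this coupled fluorometric format, phosphate-activated GAC (2 nM, 50 mM phosphate) is pre-exposed to compound for 10 min before 1 mM glutamine addition. Product is tracked as resorufin (530/590 nm) over time or at 20 min, and potency is derived by logistic fitting.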

| EC50 (A549 cells; Homo sapiens) [nM] | IC50 [1] [nM] | EC50 (A549 cells) [nM] | Compound |
| --- | --- | --- | --- |
| 100 to 500 | < 100 | – | CC(C)(O)c1ccnc(CNC(=O)c2cn(CCCCc3cc4cc(-c5ccccc5F)[nH]c4nn3)nn2)c1 [Example 239, 1-{4-[6-(2-fluorophenyl)-7H-pyrrolo[2,3-c]pyridazin-3-yl]butyl}-N-{[4-(2-hydroxypropan-2-yl)pyridin-2-yl]methyl}-1H-1,2,3-triazole-4-carboxamide] |
| 100 to 500 | 100 to 500 | – | CNC(=O)c1cn(CCCCc2cc3cc(-c4ccccc4F)[nH]c3nn2)nn1 [Example 240, 1-{4-[6-(2-fluorophenyl)-7H-pyrrolo[2,3-c]pyridazin-3-yl]butyl}-N-methyl-1H-1,2,3-triazole-4-carboxamide] |
| < 100 | < 100 | – | Cc1ccc(CNC(=O)c2cn(CC(F)CCc3cc4cc(-c5ccccc5F)[nH]c4nn3)nn2)cn1 (centres unmarked) [Example 241, 1-(2-fluoro-4-(6-(2-fluorophenyl)-7H-pyrrolo[2,3-c]pyridazin-3-yl)butyl)-N-((6-methylpyridin-3-yl)methyl)-1H-1,2,3-triazole-4-carboxamide] |
| 100 to 500 | < 100 | – | O=C(NCc1ccccn1)c1cn(CC(F)CCc2cc3cc(-c4ccccc4F)[nH]c3nn2)nn1 (centres unmarked) [Example 242, 1-{2-fluoro-4-[6-(2-fluorophenyl)-7H-pyrrolo[2,3-c]pyridazin-3-yl]butyl}-N-(pyridin-2-ylmethyl)-1H-1,2,3-triazole-4-carboxamide] |
| 500 to 5000 | 100 to 500 | – | CNC(=O)c1cn(CC(F)CCc2cc3cc(-c4ccccc4F)[nH]c3nn2)nn1 (centres unmarked) [Example 243, 1-{2-fluoro-4-[6-(2-fluorophenyl)-7H-pyrrolo[2,3-c]pyridazin-3-yl]butyl}-N-methyl-1H-1,2,3-triazole-4-carboxamide] |
| < 100 | < 100 | – | O=C(NCc1cc(C2CC2)ccn1)c1cn(CC(F)CCc2cc3cc(-c4ccccc4F)[nH]c3nn2)nn1 (centres unmarked) [Example 244, N-[(4-cyclopropylpyridin-2-yl)methyl]-1-{2-fluoro-4-[6-(2-fluorophenyl)-7H-pyrrolo[2,3-c]pyridazin-3-yl]butyl}-1H-1,2,3-triazole-4-carboxamide] |
| – | < 100 | 500 to 5000 | N-(5-(4-(7H-pyrrolo[2,3-c]pyridazin-3-yl)butyl)-1,3,4-thiadiazol-2-yl)-2-phenylacetamide [Example 64] |
